Measured values: patent US11690824B2, “Antibacterial compounds” (THE GENERAL HOSPITAL CORPORATION, priority 2018, dated 2023)
Values after ≈ are worked out from the molar mass of the structure shown. Where two headings read alike, the source gives them in different places.

Assays:
human erythrocytes = assay: Human blood hemolysis; format: cell-based; conditions: 32 μg/ml
Description: Human blood hemolysis. Hemolytic activity was evaluated as described in a previous study. Briefly, 100 μL of 4% human erythrocytes (Rockland Immunochemicals, Limerick, Pa., USA) was added to 100 μL of 2-fold serial dilutions of compounds in PBS, 0.2% DMSO (negative control), or 2% Triton-X 100 (positive control) in a 96-well plate. The 96-well plate was incubated at 37° C. for 1 h and then centrifuged at 500× g for 5 min. 50 μL of the supernatant was transferred to a fresh 96-well plate, and absorbance of supernatants was measured at 540 nm. Percent hemolysis was calculated using the following equation: (A540 nm of compound treated sample−A540 nm of 0.1% DMSO treated sample)/(A540 nm of 1% Triton X-100 treated sample−A540 nm of 0.1% DMSO treated sample)×100. HC50 (concentration of a compound causing 50% hemolysis) was determined using SigmaPlot 10.0 (Systat Software Inc., San Jose, Calif., USA).

S. aureus (MRSA) MW2 = assay: Minimal inhibitory concentration (MIC) assay, micro-dilution; format: cell-based; conditions: for MIC: Example 5, MRSA MW2
Description: Bacterial strains, growth conditions, and persister isolation. Methicillin-resistant S. aureus strains, MW2 BAA-1707, ATCC 33591, and JE2, methicillin-susceptible S. aureus strains, NCTC 8325, Newman, and ATCC 29213, vancomycin-resistant S. aureus strain, VRS1, Enterococcus faecium E007, vancomycin-resistant E. faecium strains, C68,^7 WB312, and WC196, Klebsiella pneumoniae WGLW2 (BEI Resources, Manassas, Va., USA), Acinetobacter baumannii ATCC 17978, Pseudomonas aeruginosa PA14, and Enterobacter aerogenes ATCC 13048 were used to test antimicrobial activity (Table 1). S. aureus strains were grown in tryptic soy broth (TSB) (BD, Franklin Lakes, N.J., USA), and E. faecium was grown in brain-heart infusion (BHI) broth (BD, Franklin Lakes, N.J., USA) at 37° C. K. pneumoniae, A. baumannii, P. aeruginosa, and E. aerogenes were grown in Luria Bertani (LB) broth (BD, Franklin Lakes, N.J., USA) at 37° C.
Minimal inhibitory concentration (MIC) assay. The MICS of antibiotics were determined by the standard micro-dilution method recommended by the Clinical and Laboratory Standards Institute. MIC assays were conducted in biological triplicate.

HepG2 = assay: Cytotoxicity (WST-1); format: cell-based; conditions: 32 μg/ml
Description: (§1) Cytotoxicity. […] HepG2 and HKC-8 cells were grown in Dulbecco's modified Eagle F-12 media mixed 1:1 with Ham's F-12 (DMEM/F-12, Life Technologies, Carlsbad, Calif., USA) supplemented with 10% FBS and 4 mM L-glutamine at 37° C. in 5% CO2. For cytotoxicity assays, HepG2 or HKC-8 was cultured in 96-well plates in 100 μL/well of the proper media to reach 70-80% confluence. The cells were then treated with a range of concentrations of nTZDpa or its analogs for 72 h. 10 μL of WST-1 (Roche, Mannheim, Germany) was added per well for the last 4 h of the 72 h period. WST-1 reduction was measured at absorbance 450 nm. The percent […] relative to that of the no-treatment control was calculated. The assay was carried out in biological triplicate.

HKC-8 = assay: Cytotoxicity (WST-1); format: cell-based; conditions: 32 μg/ml
Description: as §1

MRSA MW2 = assay: SYTOX Green membrane permeability assay; format: cell-based, S. aureus
Description: SYTOX Green membrane permeability assay. […] The washed cells were adjusted to OD600=0.4 with PBS. SYTOX Green (Molecular Probes, Waltham, Mass., USA) was added to 10 mL of the diluted bacterial suspension to a final concentration of 5 μM and incubated for 30 min at room temperature in the dark. 50 μL of the bacteria/SYTOX Green suspension was mixed with 50 μl of PBS containing twice the desired concentrations of compounds in black, clear-bottom, 96-well plates (Corning no. 3904). Fluorescence was measured at room temperature using a spectrophotometer (SpectraMax M2, Molecular Devices), with excitation and emission wavelengths of 485 nm and 525 nm, respectively. All experiments were conducted in biological triplicate.

Structure (SMILES)	hemolysis of human erythrocytes (human erythrocytes)	MIC (S. aureus (MRSA) MW2)	cell death of HepG2 (HepG2)	cell death of HKC-8 (HKC-8)	concentration inducing SYTOX Green fluorescence (MRSA MW2) [µg/mL]	MIC (S. aureus (MRSA) MW2; Staphylococcus aureus, read-out: MIC) [µg/mL]	antibiotic activity / potency relative to nTZDpa (S. aureus (MRSA) MW2; growing S. aureus cells)
O=C(O)c1c(Sc2ccccc2)c2ccc(Cl)cc2n1Cc1ccc(Cl)cc1 [Analog 2a]	did not significantly cause hemolysis	same MIC	did not display a significant level of cytotoxicity	did not display a significant level of cytotoxicity	–	–	–
COc1c(C(=O)O)n(Cc2ccc(Cl)cc2)c2ccc(Cl)cc12 [Compound S14, 5-chloro-1-(4-chlorobenzyl)-3-methoxy-1H-indole-2-carboxylic acid]	–	–	–	–	64	32 (≈ 91.4 µM)	reduction of antibiotic activity
